Assay results published in patent US20090156646A1, “PYRIDYLPHENOL COMPOUND AND USE THEREOF” (TAKEDA PHARMACEUTICAL COMPANY LIMITED, priority 2005, published 2009).

Assays:
[1] = molecular target: T1, human metastin receptor hOT7T175 (Homo sapiens, UniProt Q969F8, L364H); assay: binding inhibiting activity: 125I-metastin (40-54) binding to cell membrane fraction of h175 KB34 cells; settings: room temperature 60 minutes, read-out: binding inhibiting activity, represented by the IC50 value
T1 construct: encoding the entire length of human metastin receptor hOT7T175; expressed in transfected cells; host or cells: CHO/dhFr- cells (ATCC #CRL-9096) stably transfected with pAKKO-hOT7T175; clone h175-16 was used as whole cells for FLIPR
Outline: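 The assay buffer (pH 7.4 Tris with magnesium acetate, EGTA and a protease-inhibitor cocktail) was used either plain or supplemented with 1 mg/ml BSA. The radioligand was 125I-labelled human metastin (40-54). The receptor source was a 250-fold diluted membrane fraction of the stable CHO/dhfr− line h175 KB34.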

T1 sequence (Q969F8 whole entry L364H): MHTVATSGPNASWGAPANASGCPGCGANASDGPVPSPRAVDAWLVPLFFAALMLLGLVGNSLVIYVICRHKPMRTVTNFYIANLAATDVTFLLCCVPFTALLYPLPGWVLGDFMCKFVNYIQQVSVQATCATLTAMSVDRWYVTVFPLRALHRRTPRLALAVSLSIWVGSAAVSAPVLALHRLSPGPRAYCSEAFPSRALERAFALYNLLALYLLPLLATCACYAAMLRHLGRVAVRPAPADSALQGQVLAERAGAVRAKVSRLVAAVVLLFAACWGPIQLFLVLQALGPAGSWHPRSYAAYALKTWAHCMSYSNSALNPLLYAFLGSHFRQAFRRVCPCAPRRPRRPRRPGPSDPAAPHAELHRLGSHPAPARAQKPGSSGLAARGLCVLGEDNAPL

| Structure (SMILES) | melting point | IC50 [1] |
| --- | --- | --- |
| COc1ccccc1C(=O)Nc1nc(-c2ccc(F)cc2O)cc(-c2cccc(C(=O)NCCN)c2)c1C#N.Cl [Example 244, N-[4-(3-{[(2-aminoethyl)amino]carbonyl}phenyl)-3-cyano-6-(4-fluoro-2-hydroxyphenyl)pyridin-2-yl]-2-methoxybenzamide hydrochloride] | 227 to 229 °C | ≤ 10 µM |
| COc1ccccc1C(=O)Nc1nc(-c2ccc(F)cc2O)cc(-c2cccc(C(=O)NCCCn3ccnc3)c2)c1C#N.Cl [Example 245, N-{3-cyano-6-(4-fluoro-2-hydroxyphenyl)-4-[3-({[3-(1H-imidazol-1-yl)propyl]amino}carbonyl)phenyl]pyridin-2-yl}-2-methoxybenzamide hydrochloride] | 234 to 235 °C | ≤ 10 µM |
| COc1ccccc1C(=O)Nc1nc(-c2ccc(F)cc2O)cc(-c2cccc(C(=O)NCC(C)(C)CN)c2)c1C#N.Cl [Example 246, N-[4-(3-{[(3-amino-2,2-dimethylpropyl)amino]carbonyl}phenyl)-3-cyano-6-(4-fluoro-2-hydroxyphenyl)pyridin-2-yl]-2-methoxybenzamide hydrochloride] | 244 to 246 °C | ≤ 10 µM |
| COc1ccccc1C(=O)Nc1nc(-c2ccc(F)cc2O)cc(-c2cccc(NC(=O)CCN)c2)c1C#N.Cl [Example 247, N-[4-[3-(β-alanylamino)phenyl]-3-cyano-6-(4-fluoro-2-hydroxyphenyl)pyridin-2-yl]-2-methoxybenzamide hydrochloride] | 232 to 233 °C | ≤ 10 µM |
| Cl.N#Cc1c(-c2cccc(C(=O)NCCN)c2)cc(-c2ccc(Cl)cc2O)nc1NC(=O)c1nccs1 [Example 249, N-[4-(3-{[(2-aminoethyl)amino]carbonyl}phenyl)-6-(4-chloro-2-hydroxyphenyl)-3-cyanopyridin-2-yl]-1,3-thiazole-2-carboxamide hydrochloride] | 242 to 244 °C | ≤ 10 µM |
| Cl.N#Cc1c(-c2cccc(C(=O)NCCCn3ccnc3)c2)cc(-c2ccc(Cl)cc2O)nc1NC(=O)c1nccs1 [Example 250, N-{6-(4-chloro-2-hydroxyphenyl)-3-cyano-4-[3-({[3-(1H-imidazol-1-yl)propyl]amino}carbonyl)phenyl]pyridin-2-yl}-1,3-thiazole-2-carboxamide hydrochloride] | 208 to 212 °C | ≤ 10 µM |
| COc1ccc(C(=O)Nc2nc(-c3ccc(Cl)cc3O)cc(-c3cccc(NC(=O)CCN)c3)c2C#N)cc1.Cl [Example 252, N-[4-[3-(β-alanylamino)phenyl]-6-(4-chloro-2-hydroxyphenyl)-3-cyanopyridin-2-yl]-4-methoxybenzamide hydrochloride] | 193 to 197 °C | ≤ 10 µM |
| Cl.N#Cc1c(-c2cccc(NC(=O)C(N)c3ccccc3)c2)cc(-c2ccc(F)cc2O)nc1NC(=O)c1ccco1 (centres unmarked) [Example 258, N-[4-(3-{[amino(phenyl)acetyl]amino}phenyl)-3-cyano-6-(4-fluoro-2-hydroxyphenyl)pyridin-2-yl]-2-furamide hydrochloride] | 224 to 225 °C | ≤ 10 µM |
| Cl.N#Cc1c(-c2cccc(NC(=O)[C@H](N)Cc3ccccc3)c2)cc(-c2ccc(F)cc2O)nc1NC(=O)c1ccco1 [Example 263, N-{3-[3-cyano-6-(4-fluoro-2-hydroxyphenyl)-2-(2-furoylamino)pyridin-4-yl]phenyl}-D-phenylalaninamide hydrochloride] | 186 to 188 °C | ≤ 10 µM |
| C[C@H](N)CC(=O)Nc1cccc(-c2cc(-c3ccc(Cl)cc3O)nc(NC(=O)c3nccs3)c2C#N)c1.Cl [Example 269, N-[4-(3-{[(3S)-3-aminobutanoyl]amino}phenyl)-6-(4-chloro-2-hydroxyphenyl)-3-cyanopyridin-2-yl]-1,3-thiazole-2-carboxamide hydrochloride] | 218 to 221 °C | ≤ 10 µM |
| C[C@@H](N)CC(=O)Nc1cccc(-c2cc(-c3ccc(Cl)cc3O)nc(NC(=O)c3nccs3)c2C#N)c1.Cl [Example 270, N-[4-(3-{[(3R)-3-aminobutanoyl]amino}phenyl)-6-(4-chloro-2-hydroxyphenyl)-3-cyanopyridin-2-yl]-1,3-thiazole-2-carboxamide hydrochloride] | 218 to 221 °C | ≤ 10 µM |
| Cc1ccc(C(=O)Nc2nc(-c3ccc(Cl)cc3O)cc(-c3cccc(NC(=O)CC(C)N)c3)c2C#N)o1.Cl (centres unmarked) [Example 271, N-[4-{3-[(3-aminobutanoyl)amino]phenyl}-6-(4-chloro-2-hydroxyphenyl)-3-cyanopyridin-2-yl]-5-methyl-2-furamide hydrochloride] | 206 to 212 °C | ≤ 10 µM |
| COc1c(C(=O)NCCN)cccc1-c1cc(-c2ccccc2O)nc(NC(=O)c2ccco2)c1C#N.Cl [Example 273, N-[4-(3-{[(2-aminoethyl)amino]carbonyl}-2-methoxyphenyl)-3-cyano-6-(2-hydroxyphenyl)pyridin-2-yl]-2-furamide hydrochloride] | 182 to 188 °C | ≤ 10 µM |

The next lines start with the values.

| melting point | IC50 [1] | Structure (SMILES) |
| --- | --- | --- |
| 241 to 244 °C | ≤ 10 µM | CC(C)(CN)CNC(=O)c1cccc(-c2cc(-c3ccc(Cl)cc3O)nc(NC(=O)c3ccco3)c2C#N)c1.Cl [Example 85, N-[4-(3-{[(3-amino-2,2-dimethylpropyl)amino]carbonyl}phenyl)-6-(4-chloro-2-hydroxyphenyl)-3-cyanopyridin-2-yl]-2-furamide hydrochloride] |
| 252 to 255 °C | ≤ 10 µM | Cl.N#Cc1c(-c2cccc(C(=O)NCCN)c2)cc(-c2ccc(Cl)cc2O)nc1NC(=O)c1ccco1 [Example 86, N-[4-(3-{[(2-aminoethyl)amino]carbonyl}phenyl)-6-(4-chloro-2-hydroxyphenyl)-3-cyanopyridin-2-yl]-2-furamide hydrochloride] |
| 210 to 216 °C | ≤ 10 µM | C[C@@H](N)C(=O)Nc1cccc(-c2cc(-c3ccc(Cl)cc3O)nc(NC(=O)c3ccco3)c2C#N)c1.Cl [Example 237, N-[4-[3-(alanylamino)phenyl]-6-(4-chloro-2-hydroxyphenyl)-3-cyanopyridin-2-yl]-2-furamide hydrochloride] |
| 206 to 214 °C | ≤ 10 µM | CC(N)CC(=O)Nc1cccc(-c2cc(-c3ccc(Cl)cc3O)nc(NC(=O)c3ccco3)c2C#N)c1.Cl (centres unmarked) [Example 238, N-[4-{3-[(3-aminobutanoyl)amino]phenyl}-6-(4-chloro-2-hydroxyphenyl)-3-cyanopyridin-2-yl]-2-furamide hydrochloride] |
| 188 to 194 °C | ≤ 10 µM | Cl.N#Cc1c(-c2cccc(NC(=O)Cn3ccnc3)c2)cc(-c2ccc(Cl)cc2O)nc1NC(=O)c1ccco1 [Example 239, N-(6-(4-chloro-2-hydroxyphenyl)-3-cyano-4-{3-[(1H-imidazole-1-ylacetyl)amino]phenyl}pyridin-2-yl)-2-furamide hydrochloride] |
| 207 to 210 °C | ≤ 10 µM | C[C@H](N)C(=O)Nc1cccc(-c2cc(-c3ccc(Cl)cc3O)nc(NC(=O)c3ccco3)c2C#N)c1.Cl [Example 240, N-[4-[3-(L-alanylamino)phenyl]-6-(4-chloro-2-hydroxyphenyl)-3-cyanopyridin-2-yl]-2-furamide hydrochloride] |
| 226 to 235 °C | ≤ 10 µM | Cl.N#Cc1c(-c2cccc(NC(=O)C3CCNC3)c2)cc(-c2ccc(Cl)cc2O)nc1NC(=O)c1ccco1 (centres unmarked) [Example 241, N-{3-[6-(4-chloro-2-hydroxyphenyl)-3-cyano-2-(2-furoylamino)pyridin-4-yl]phenyl}pyrrolidine-3-carboxamide hydrochloride] |
| 166 to 170 °C | ≤ 10 µM | Cl.N#Cc1c(-c2cccc(NC(=O)CCCn3ccnc3)c2)cc(-c2ccc(Cl)cc2O)nc1NC(=O)c1ccco1 [Example 242, N-[6-(4-chloro-2-hydroxyphenyl)-3-cyano-4-(3-{[4-(1H-imidazole-1-yl)butanoyl]amino}phenyl)pyridin-2-yl]-2-furamide hydrochloride] |
| 203 to 205 °C | ≤ 10 µM | Cl.N#Cc1c(-c2cccc(NC(=O)CN3CCCC3)c2)cc(-c2ccc(F)cc2O)nc1NC(=O)c1ccco1 [Example 259, N-(3-cyano-6-(4-fluoro-2-hydroxyphenyl)-4-{3-[(pyrrolidin-1-ylacetyl)amino]phenyl}pyridin-2-yl)-2-furamide hydrochloride] |
| 212 to 214 °C | ≤ 10 µM | CCC(N)CC(=O)Nc1cccc(-c2cc(-c3ccc(F)cc3O)nc(NC(=O)c3ccco3)c2C#N)c1.Cl (centres unmarked) [Example 264, N-[4-{3-[(3-aminopentanoyl)amino]phenyl}-3-cyano-6-(4-fluoro-2-hydroxyphenyl)pyridin-2-yl]-2-furamide hydrochloride] |
| 214 to 217 °C | ≤ 10 µM | CCCC(N)CC(=O)Nc1cccc(-c2cc(-c3ccc(F)cc3O)nc(NC(=O)c3ccco3)c2C#N)c1.Cl (centres unmarked) [Example 265, N-[4-{3-[(3-aminohexanoyl)amino]phenyl}-3-cyano-6-(4-fluoro-2-hydroxyphenyl)pyridin-2-yl]-2-furamide hydrochloride] |
| 214 to 217 °C | ≤ 10 µM | CC(C)C(N)CC(=O)Nc1cccc(-c2cc(-c3ccc(F)cc3O)nc(NC(=O)c3ccco3)c2C#N)c1.Cl (centres unmarked) [Example 266, N-[4-{3-[(3-amino-4-methylpentanoyl)amino]phenyl}-3-cyano-6-(4-fluoro-2-hydroxyphenyl)pyridin-2-yl]-2-furamide hydrochloride] |
